From ChEMBL document CHEMBL1141968, “A lead compound for the development of ABA 8'-hydroxylase inhibitors” (Bioorg Med Chem Lett, 2005) come the findings set out here.

Where only a bound is given, the exact number is not on record here.

One experiment relates to Lactuca sativa. In words: Effect on seed germination in lettuce (Lactuca sativa L.Cv Grand Rapids). The format is functional, organism-based.
Experiment [1] has as its target T1, Abscisic acid 8'-hydroxylase 3 (Arabidopsis thaliana, UniProt Q9FH76).
T1 sequence (Q9FH76 whole entry): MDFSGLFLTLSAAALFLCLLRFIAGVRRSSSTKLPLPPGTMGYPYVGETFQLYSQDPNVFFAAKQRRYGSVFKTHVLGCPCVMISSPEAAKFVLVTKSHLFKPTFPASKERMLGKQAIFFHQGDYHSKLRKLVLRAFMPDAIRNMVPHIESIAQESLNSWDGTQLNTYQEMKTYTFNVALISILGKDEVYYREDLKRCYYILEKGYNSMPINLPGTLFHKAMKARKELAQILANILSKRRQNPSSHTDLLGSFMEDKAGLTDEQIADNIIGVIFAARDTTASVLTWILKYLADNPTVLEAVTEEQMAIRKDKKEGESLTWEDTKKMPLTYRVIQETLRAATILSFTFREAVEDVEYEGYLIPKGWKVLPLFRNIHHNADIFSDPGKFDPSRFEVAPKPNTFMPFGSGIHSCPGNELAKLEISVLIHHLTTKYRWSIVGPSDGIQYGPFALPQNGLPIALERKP
In words: Inhibitory activity against recombinant CYP707A3 in Arabidopsis at 50 uM.

Experiment [2] deals with T1, Abscisic acid 8'-hydroxylase 3. Nature of the experiment: Inhibitory activity against recombinant CYP707A3 in Arabidopsis.
The next experiment deals with Oryza sativa. Nature of the experiment: Effect on seed elongation in Rice (Oryza sativa L.Cv.Nipponbare). The format is functional, organism-based.

Consider `C[C@H]1CCCC(C)(C)[C@@]1(O)/C=C/C=C\C(=O)O` (racemic), for which the IC50 in the experiment with Lactuca sativa is greater than 300 µM; in experiment [2] it was 0.91 µM; in the experiment with Oryza sativa, greater than 300 µM. In addition, the inhibition at 50 µM in experiment [1] was 90.9%. In experiment [2], the Ki was determined as 0.4 µM.
Regarding `CC1=CC(=O)C[C@](C)(C(F)F)[C@@]1(O)/C=C/C(C)=C\C(=O)O`, the Ki in experiment [2] came to 0.17 µM.
As for `CC1=CC(=O)CC(C)(C)[C@@]1(O)/C=C/C(C)=C\C(=O)O` [(+)-ABSCISIC ACID], the IC50 with Lactuca sativa is 12 µM; in the experiment on Oryza sativa it was 2 µM.
In the case of `C[C@H]1CCC[C@](C)(C(F)F)[C@@]1(O)/C=C/C=C\C(=O)O` (racemic), the values for the IC50 (in the experiment with Lactuca sativa; in experiment [2]; in the experiment on Oryza sativa) were 150 µM, 0.63 µM and greater than 300 µM, respectively. Further, the inhibition at 50 µM in experiment [1] turned out to be 94%. In addition, in experiment [2], the Ki came to 0.41 µM.
